The values that follow come from patent publication US9855268B2, “Triazolo[4,5-d]pyrimidine derivatives” (Merck Patent GmbH, priority 2013, dated 2018).

Bounds are passed on as bounds.

Assay [1] has as its target T1, GCN2 (Homo sapiens, UniProt Q9P2K8). Put plainly: GCN2 enzyme assay (TR-FRET Lanthascreen, GFP-eIF2alpha phosphorylation). The format is biochemical. The conditions noted are these: 10 μM ATP, 80 nM GFP-eIF2a, 30 nM GCN2. A digest of the protocol: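 Phosphorylation of GFP-eIF2alpha (80 nM) by GCN2 run at room temperature with 10 μM ATP. After EDTA quench, product quantified by Lanthascreen TR-FRET (antibody–GFP complex, 340 nm excitation).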
For orientation: TR-FRET usually uses a lanthanide donor and a delayed reading to cut background.
Target sequence in this assay (Q9P2K8 whole entry, species assumed): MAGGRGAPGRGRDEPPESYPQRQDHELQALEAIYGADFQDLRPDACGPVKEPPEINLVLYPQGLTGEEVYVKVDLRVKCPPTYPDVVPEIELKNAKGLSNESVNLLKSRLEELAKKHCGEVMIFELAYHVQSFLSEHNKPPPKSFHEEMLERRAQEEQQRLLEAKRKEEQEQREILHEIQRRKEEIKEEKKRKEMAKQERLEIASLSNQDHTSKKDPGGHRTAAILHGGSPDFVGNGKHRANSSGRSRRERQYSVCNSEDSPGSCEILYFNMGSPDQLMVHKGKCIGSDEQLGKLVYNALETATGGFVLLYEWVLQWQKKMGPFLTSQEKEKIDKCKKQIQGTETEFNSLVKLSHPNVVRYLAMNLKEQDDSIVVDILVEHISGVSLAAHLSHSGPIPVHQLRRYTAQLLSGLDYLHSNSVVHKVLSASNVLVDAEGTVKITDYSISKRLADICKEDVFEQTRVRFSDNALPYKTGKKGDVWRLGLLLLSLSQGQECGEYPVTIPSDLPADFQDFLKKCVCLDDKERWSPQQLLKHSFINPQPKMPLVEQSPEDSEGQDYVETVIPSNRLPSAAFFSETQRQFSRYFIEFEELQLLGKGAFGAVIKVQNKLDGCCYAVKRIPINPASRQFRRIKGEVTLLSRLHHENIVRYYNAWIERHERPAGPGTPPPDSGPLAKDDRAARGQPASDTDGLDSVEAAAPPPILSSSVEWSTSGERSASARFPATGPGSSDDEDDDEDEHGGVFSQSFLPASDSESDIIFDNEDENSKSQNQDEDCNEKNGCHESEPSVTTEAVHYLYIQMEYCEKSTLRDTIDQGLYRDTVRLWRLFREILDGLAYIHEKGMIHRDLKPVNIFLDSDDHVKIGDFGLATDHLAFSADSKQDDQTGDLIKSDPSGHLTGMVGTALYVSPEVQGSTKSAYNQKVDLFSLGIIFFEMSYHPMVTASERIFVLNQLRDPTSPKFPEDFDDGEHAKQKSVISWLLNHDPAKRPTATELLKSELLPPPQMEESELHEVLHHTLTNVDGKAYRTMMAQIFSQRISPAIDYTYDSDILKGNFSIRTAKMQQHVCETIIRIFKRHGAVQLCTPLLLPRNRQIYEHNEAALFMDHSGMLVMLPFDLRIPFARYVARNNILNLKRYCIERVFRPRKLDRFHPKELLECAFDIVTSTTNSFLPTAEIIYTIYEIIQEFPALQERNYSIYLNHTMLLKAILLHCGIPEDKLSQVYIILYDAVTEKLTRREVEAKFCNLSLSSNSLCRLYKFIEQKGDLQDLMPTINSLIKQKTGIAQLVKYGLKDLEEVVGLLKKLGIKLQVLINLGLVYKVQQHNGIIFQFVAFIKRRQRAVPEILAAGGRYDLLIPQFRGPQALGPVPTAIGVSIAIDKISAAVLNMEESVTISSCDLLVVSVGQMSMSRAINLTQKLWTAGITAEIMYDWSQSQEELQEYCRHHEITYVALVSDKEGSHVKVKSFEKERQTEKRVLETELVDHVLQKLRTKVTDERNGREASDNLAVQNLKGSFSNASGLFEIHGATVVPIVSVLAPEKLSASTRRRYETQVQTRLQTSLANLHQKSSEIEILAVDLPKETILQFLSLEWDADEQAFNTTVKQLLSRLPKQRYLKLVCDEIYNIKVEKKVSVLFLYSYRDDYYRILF

Assay [2] concerns the target GSK3α(h) (Homo sapiens, UniProt P49840). Nature of the assay: GSK3α radiometric kinase assay (33P-ATP, phospho GS2 peptide). The format is biochemical. The conditions noted are these: read-out: IC50 GSK3α (enzyme assay). A digest of the protocol:
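Human GSK3α incubated with 20 μM phospho-GS2 peptide in 8 mM MOPS pH 7,0, 10 mM Mg-acetate and [γ-33P]ATP (concentration as required), started with MgATP. After 40 minutes at room temperature, stopped with phosphoric acid; 33P incorporation measured by filtermat spotting and scintillation counting.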

Assay [3] concerns the target GSK3β(h) (Homo sapiens, UniProt P49841). Nature of the assay: GSK3β radiometric kinase assay (33P-ATP, phospho GS2 peptide). The format is biochemical. The conditions noted are these: read-out: IC50 GSK3β (enzyme assay). A digest of the protocol:
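Human GSK3β in 8 mM MOPS pH 7,0, 0,2 mM EDTA, 10 mM Mg-acetate with 20 μM phospho-GS2 peptide; the reaction was started with [γ-33P]MgATP at an unstated level. After 40 min at room temperature it was stopped with phosphoric acid, and the peptide was captured on P30 filtermat for scintillation counting.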

The target in assay [4] is T1, GCN2. Nature of the assay: Cellular assay of GCN2 activity (phospho-eIF2alpha immunocytochemistry after tryptophanol). Also on record: endogenous in cells; host or cells: U2OS. The conditions noted are these: Human U2OS cells, 2 h compound, 600 μM tryptophanol 30 min. The format is cell-based. A digest of the protocol:
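Readout in human U2OS cells: compound pretreatment 2 h, then tryptophanol (600 μM final) for 30 min to trigger GCN2 signalling. Fixed, permeabilised cells quantified by immunocytochemistry for phosphorylation, normalised to DMSO controls as % effect; IC50 from concentration-response.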
Target sequence in this assay (Q9P2K8 whole entry): as the sequence (Q9P2K8 whole entry, species assumed) above

Sequence of GSK3β(h) (P49841 whole entry): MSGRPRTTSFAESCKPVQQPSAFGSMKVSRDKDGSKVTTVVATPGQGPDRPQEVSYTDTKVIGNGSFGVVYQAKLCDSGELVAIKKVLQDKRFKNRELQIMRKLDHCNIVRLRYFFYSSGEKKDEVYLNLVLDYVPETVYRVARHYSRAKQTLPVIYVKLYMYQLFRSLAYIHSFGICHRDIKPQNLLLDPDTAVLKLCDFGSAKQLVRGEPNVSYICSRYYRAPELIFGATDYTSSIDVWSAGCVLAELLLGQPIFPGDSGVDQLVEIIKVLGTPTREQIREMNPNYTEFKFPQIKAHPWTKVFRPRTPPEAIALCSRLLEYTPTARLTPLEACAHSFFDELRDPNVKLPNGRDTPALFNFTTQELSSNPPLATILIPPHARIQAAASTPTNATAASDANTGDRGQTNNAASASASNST
Sequence of GSK3α(h) (P49840 whole entry): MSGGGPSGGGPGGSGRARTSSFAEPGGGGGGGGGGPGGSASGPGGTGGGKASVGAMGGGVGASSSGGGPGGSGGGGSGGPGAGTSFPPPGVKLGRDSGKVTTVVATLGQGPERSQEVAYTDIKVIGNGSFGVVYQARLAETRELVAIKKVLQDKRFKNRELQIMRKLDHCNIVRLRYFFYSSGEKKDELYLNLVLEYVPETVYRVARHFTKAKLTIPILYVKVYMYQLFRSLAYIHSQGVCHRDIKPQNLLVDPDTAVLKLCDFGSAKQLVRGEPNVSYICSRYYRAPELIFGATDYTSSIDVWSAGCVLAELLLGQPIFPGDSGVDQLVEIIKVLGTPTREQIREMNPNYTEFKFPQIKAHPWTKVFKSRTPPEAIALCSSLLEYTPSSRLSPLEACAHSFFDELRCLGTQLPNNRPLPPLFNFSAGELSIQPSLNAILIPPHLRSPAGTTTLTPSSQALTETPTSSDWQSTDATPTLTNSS

For `COc1ccc(-n2nnc3cnc(N[C@@H]4CC[C@@H](C(N)=O)C4)nc32)cc1C` [A162, (1R,3R)-3-[3-(4-methoxy-3-methyl-phenyl)-3H-[1,2,3]triazolo[4,5-d]pyrimidin-5-ylamino]-cyclopentanecarboxylic acid amide], the IC50 (usually the concentration at which inhibition is half-maximal) in assay [1] is less than 1000 nM; in assay [2], less than 1000 nM; in assay [3], less than 1000 nM; in assay [4], 5000 to 10000 nM.
Consider `Cc1nc2ccc(-n3nnc4cnc(N[C@@H]5CC[C@@H](C(N)=O)C5)nc43)cc2s1` [A147, (1R,3R)-3-[3-(2-methyl-benzothiazol-6-yl)-3H-[1,2,3]triazolo[4,5-d]pyrimidin-5-ylamino]-cyclopentanecarboxylic acid amide], for which the IC50 in assay [1] is less than 1000 nM; in assay [2], less than 1000 nM; in assay [3] it was less than 1000 nM; in assay [4], 1000 to 5000 nM.
